Data published in ChEMBL document CHEMBL5543147, “Discovery and Characterization of a Novel Cereblon-Recruiting PRC1 Bridged PROTAC Degrader” (J Med Chem, 2024).
Active and inactive are the calls of the source. The calls are words filed in the database; no cut-off is given here.

What was measured:
[1] = biological target: T1, von Hippel-Lindau disease tumor suppressor/Polycomb complex protein BMI-1 (Homo sapiens) (UniProt P40337+P35226); experiment: PROTAC activity at […] in human K562 cells assessed as degradation of BMI1 protein expression at 1 to 10 uM incubated for 24 hrs by Western blotting analysis; assay type: cell-based; details: dose 1-10 µM
T1 sequence (P35226 whole entry, looked up): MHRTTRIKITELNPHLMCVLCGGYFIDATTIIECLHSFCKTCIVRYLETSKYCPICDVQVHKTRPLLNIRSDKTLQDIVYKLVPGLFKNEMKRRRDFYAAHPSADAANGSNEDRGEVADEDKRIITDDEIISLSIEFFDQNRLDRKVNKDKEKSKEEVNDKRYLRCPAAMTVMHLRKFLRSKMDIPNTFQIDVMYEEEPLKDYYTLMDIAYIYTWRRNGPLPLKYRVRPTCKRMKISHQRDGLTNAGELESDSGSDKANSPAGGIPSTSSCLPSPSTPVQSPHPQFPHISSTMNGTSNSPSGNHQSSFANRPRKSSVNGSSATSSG
T1 sequence (P40337 whole entry, looked up): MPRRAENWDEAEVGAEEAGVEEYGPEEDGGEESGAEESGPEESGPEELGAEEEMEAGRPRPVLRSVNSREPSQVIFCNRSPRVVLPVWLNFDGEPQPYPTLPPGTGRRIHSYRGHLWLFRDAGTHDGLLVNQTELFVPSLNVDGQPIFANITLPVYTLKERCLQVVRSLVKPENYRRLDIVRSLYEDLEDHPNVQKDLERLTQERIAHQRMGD

[2] = biological target: T2, Protein cereblon/E3 ubiquitin-protein ligase RING2 (Homo sapiens, UniProt Q96SW2+Q99496); experiment: PROTAC activity at CRBN/RING1B in human K562 cells assessed as degradation of RING1B protein expression at 1 to 10 uM incubated for 24 hrs by Western blotting analysis; assay type: cell-based; details: dose 1-10 µM
T2 sequence (Q96SW2 whole entry): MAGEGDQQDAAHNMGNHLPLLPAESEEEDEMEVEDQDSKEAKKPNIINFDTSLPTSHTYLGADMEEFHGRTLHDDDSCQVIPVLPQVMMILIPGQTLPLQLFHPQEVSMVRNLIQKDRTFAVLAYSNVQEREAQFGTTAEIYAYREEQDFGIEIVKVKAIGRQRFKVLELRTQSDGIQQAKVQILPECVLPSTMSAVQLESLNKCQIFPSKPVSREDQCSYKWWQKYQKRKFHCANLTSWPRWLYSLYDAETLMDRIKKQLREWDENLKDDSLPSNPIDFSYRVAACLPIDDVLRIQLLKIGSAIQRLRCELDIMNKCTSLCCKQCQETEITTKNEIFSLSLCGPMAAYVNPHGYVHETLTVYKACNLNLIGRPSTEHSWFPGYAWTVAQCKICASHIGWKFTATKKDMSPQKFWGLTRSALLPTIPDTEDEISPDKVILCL
T2 sequence (Q99496 2-336 partner limits assumed): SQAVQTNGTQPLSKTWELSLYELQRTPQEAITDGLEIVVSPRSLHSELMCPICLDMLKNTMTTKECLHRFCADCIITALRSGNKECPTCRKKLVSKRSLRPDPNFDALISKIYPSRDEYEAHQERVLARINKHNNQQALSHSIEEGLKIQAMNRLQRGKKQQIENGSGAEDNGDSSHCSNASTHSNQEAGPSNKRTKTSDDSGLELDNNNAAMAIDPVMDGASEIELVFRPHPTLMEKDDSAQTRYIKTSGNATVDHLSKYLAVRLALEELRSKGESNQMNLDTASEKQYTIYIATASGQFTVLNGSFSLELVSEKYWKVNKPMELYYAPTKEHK

K562 [3] = experiment: Induction of PRC2 degradation in human K562 cells assessed as reduction of H3K27me3 chromatin mark at 1 to 10 uM incubated for 24 hrs by Western blotting analysis; assay type: cell-based; details: dose 1-10 µM
K562 [4] = experiment: Antiproliferative activity against human K562 cells assessed as cell growth inhibition incubated for 7 days by WST-8 assay; assay type: functional; details: time 7.0 day
K562 [5] = experiment: Antiproliferative activity against human K562 cells assessed as increase in HoxA mRNA expression at 10 uM incubated for 24 hrs by RT-qPCR analysis; assay type: functional, cell-based
K562 [6] = experiment: Antiproliferative activity against human K562 cells assessed as increase in HoxD mRNA expression at 10 uM incubated for 24 hrs by RT-qPCR analysis; assay type: functional, cell-based
[7] = biological target: T1, von Hippel-Lindau disease tumor suppressor/Polycomb complex protein BMI-1 (Homo sapiens); experiment: PROTAC activity at […] in human PC-3M cells assessed as degradation of BMI1 protein expression at 0.2 to 5 uM incubated for 24 hrs by Western blotting analysis; assay type: cell-based; details: dose 0.2-5 µM
[8] = biological target: T2, Protein cereblon/E3 ubiquitin-protein ligase RING2; experiment: PROTAC activity at CRBN/RING1B in human PC-3M cells assessed as degradation of RING1B protein expression at 0.2 to 5 uM incubated for 24 hrs by Western blotting analysis; assay type: cell-based; details: dose 0.2-5 µM
[9] = biological target: T3, Protein cereblon/Polycomb protein EED (Homo sapiens, UniProt O75530+Q96SW2); experiment: PROTAC activity at CRBN/EED in human PC-3M cells assessed as degradation of EED protein expression at 0.2 to 5 uM incubated for 24 hrs by Western blotting analysis; assay type: cell-based; details: dose 0.2-5 µM
T3 sequence (O75530 2-441 limits assumed): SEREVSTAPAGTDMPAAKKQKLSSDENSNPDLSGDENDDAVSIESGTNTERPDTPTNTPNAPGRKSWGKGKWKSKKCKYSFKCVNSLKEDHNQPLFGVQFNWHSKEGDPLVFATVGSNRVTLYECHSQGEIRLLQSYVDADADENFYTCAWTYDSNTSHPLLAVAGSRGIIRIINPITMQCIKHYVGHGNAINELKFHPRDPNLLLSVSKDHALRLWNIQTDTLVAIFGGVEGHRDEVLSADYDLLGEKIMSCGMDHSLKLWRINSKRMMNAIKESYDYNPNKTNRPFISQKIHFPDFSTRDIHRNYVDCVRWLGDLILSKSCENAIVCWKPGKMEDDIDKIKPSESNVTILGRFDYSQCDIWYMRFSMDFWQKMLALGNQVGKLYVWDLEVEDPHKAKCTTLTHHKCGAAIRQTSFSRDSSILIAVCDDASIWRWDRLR
T3 sequence (Q96SW2 whole entry partner): as the sequence (Q96SW2 whole entry) above

[10] = biological target: T4, Protein cereblon/Histone-lysine N-methyltransferase EZH2 (Homo sapiens) (UniProt Q15910+Q96SW2); experiment: PROTAC activity at CRBN/EZH2 in human PC-3M cells assessed as degradation of EZH2 protein expression at 0.2 to 5 uM incubated for 24 hrs by Western blotting analysis; assay type: cell-based; details: dose 0.2-5 µM
T4 sequence (Q15910 whole entry, looked up): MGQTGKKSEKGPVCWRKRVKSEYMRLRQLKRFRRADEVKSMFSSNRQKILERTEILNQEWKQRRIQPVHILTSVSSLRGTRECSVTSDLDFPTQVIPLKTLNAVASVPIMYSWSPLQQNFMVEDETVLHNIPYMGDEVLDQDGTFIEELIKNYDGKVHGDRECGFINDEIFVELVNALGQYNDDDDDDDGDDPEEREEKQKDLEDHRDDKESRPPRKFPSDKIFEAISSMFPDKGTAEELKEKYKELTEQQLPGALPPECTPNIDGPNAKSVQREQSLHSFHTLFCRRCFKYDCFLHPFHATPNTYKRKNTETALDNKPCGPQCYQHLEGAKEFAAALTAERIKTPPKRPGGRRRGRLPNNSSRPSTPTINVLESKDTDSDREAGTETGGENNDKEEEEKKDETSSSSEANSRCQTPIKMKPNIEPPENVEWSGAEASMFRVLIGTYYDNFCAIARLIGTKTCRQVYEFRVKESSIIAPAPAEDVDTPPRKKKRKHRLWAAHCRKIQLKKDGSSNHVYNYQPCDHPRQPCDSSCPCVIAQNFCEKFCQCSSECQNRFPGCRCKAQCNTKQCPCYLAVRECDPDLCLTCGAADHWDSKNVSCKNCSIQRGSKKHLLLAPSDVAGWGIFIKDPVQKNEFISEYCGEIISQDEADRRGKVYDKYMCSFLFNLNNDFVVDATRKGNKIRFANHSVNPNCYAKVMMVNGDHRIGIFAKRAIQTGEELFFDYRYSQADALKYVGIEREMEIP
T4 sequence (Q96SW2 whole entry, looked up): as the sequence (Q96SW2 whole entry) above

[11] = biological target: T5, Protein cereblon/Polycomb protein SUZ12 (Homo sapiens) (UniProt Q15022+Q96SW2); experiment: PROTAC activity at CRBN/SUZ12 in human PC-3M cells assessed as degradation of SUZ12 protein expression at 0.2 to 5 uM incubated for 24 hrs by Western blotting analysis; assay type: cell-based; details: dose 0.2-5 µM
T5 sequence (Q15022 whole entry, looked up): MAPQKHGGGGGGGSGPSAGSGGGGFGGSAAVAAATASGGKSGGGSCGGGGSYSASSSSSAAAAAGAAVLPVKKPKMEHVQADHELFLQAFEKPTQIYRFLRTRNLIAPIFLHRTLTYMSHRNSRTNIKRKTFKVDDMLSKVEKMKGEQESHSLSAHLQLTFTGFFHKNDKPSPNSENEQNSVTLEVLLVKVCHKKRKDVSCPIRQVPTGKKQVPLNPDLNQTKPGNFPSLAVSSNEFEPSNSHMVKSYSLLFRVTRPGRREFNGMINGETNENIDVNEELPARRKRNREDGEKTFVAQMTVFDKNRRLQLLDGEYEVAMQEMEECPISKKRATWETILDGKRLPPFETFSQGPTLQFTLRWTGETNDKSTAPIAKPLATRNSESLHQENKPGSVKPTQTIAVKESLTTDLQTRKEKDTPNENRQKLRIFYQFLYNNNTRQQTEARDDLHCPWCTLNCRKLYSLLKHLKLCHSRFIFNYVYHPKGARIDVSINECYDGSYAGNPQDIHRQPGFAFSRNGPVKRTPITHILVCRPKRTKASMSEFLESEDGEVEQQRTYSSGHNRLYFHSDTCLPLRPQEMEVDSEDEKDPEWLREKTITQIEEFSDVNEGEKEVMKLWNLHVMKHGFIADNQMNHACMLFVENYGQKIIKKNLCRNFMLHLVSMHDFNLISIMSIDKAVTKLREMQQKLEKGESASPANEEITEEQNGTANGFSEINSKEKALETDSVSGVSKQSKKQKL
T5 sequence (Q96SW2 whole entry, looked up): as the sequence (Q96SW2 whole entry) above

PC-3M [12] = experiment: Induction of PRC2 degradation in human PC-3M cells assessed as reduction of H3K27me3 chromatin mark at 0.2 to 5 uM incubated for 24 hrs by Western blotting analysis; assay type: cell-based; details: dose 0.2-5 µM
PC-3M [13] = experiment: Induction of PRC1 degradation in human PC-3M cells assessed as reduction of H2AK119ub chromatin mark at 0.2 to 5 uM incubated for 24 hrs by Western blotting analysis; assay type: cell-based; details: dose 0.2-5 µM
[14] = biological target: T1, von Hippel-Lindau disease tumor suppressor/Polycomb complex protein BMI-1 (Homo sapiens); experiment: PROTAC activity at […] in human MDA-MB-468 cells assessed as degradation of BMI1 protein expression at 0.2 to 5 uM incubated for 24 hrs by Western blotting analysis; assay type: cell-based; details: dose 0.2-5 µM
[15] = biological target: T2, Protein cereblon/E3 ubiquitin-protein ligase RING2; experiment: PROTAC activity at CRBN/RING1B in human MDA-MB-468 cells assessed as degradation of RING1B protein expression at 0.2 to 5 uM incubated for 24 hrs by Western blotting analysis; assay type: cell-based; details: dose 0.2-5 µM
[16] = biological target: T3, Protein cereblon/Polycomb protein EED; experiment: PROTAC activity at CRBN/EED in human MDA-MB-468 cells assessed as degradation of EED protein expression at 0.2 to 5 uM incubated for 24 hrs by Western blotting analysis; assay type: cell-based; details: dose 0.2-5 µM
[17] = biological target: T4, Protein cereblon/Histone-lysine N-methyltransferase EZH2 (Homo sapiens); experiment: PROTAC activity at CRBN/EZH2 in human MDA-MB-468 cells assessed as degradation of EZH2 protein expression at 0.2 to 5 uM incubated for 24 hrs by Western blotting analysis; assay type: cell-based; details: dose 0.2-5 µM
[18] = biological target: T5, Protein cereblon/Polycomb protein SUZ12 (Homo sapiens); experiment: PROTAC activity at CRBN/SUZ12 in human MDA-MB-468 cells assessed as degradation of SUZ12 protein expression at 0.2 to 5 uM incubated for 24 hrs by Western blotting analysis; assay type: cell-based; details: dose 0.2-5 µM
MDA-MB-468 [19] = experiment: Induction of PRC2 degradation in human MDA-MB-468 cells assessed as reduction of H3K27me3 chromatin mark at 0.2 to 5 uM incubated for 24 hrs by Western blotting analysis; assay type: cell-based; details: dose 0.2-5 µM
MDA-MB-468 [20] = experiment: Induction of PRC1 degradation in human MDA-MB-468 cells assessed as reduction of H2AK119ub chromatin mark at 0.2 to 5 uM incubated for 24 hrs by Western blotting analysis; assay type: cell-based; details: dose 0.2-5 µM
[21] = biological target: von Hippel-Lindau disease tumor suppressor/Polycomb protein EED (Homo sapiens, UniProt O75530+P40337); experiment: PROTAC activity at VHL/EED in human KARPAS-422 cells assessed as degradation of EED protein expression by Western blotting analysis; assay type: cell-based
Sequence of von Hippel-Lindau disease tumor suppressor/Polycomb protein EED (O75530 whole entry): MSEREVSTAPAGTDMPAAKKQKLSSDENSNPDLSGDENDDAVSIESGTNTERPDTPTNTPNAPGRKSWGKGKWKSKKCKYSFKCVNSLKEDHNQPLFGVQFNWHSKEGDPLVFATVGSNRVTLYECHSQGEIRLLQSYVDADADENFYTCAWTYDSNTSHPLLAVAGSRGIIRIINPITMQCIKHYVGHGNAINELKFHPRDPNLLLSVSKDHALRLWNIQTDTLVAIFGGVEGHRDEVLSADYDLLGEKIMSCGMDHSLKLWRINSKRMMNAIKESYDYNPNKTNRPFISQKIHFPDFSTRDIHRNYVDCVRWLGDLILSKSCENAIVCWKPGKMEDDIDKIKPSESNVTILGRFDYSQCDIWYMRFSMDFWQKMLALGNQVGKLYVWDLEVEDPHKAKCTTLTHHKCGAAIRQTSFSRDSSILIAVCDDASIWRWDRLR
Sequence of von Hippel-Lindau disease tumor suppressor/Polycomb protein EED (P40337 whole entry): as the sequence (P40337 whole entry, looked up) above

[22] = biological target: von Hippel-Lindau disease tumor suppressor/Histone-lysine N-methyltransferase EZH2 (Homo sapiens, UniProt Q15910+P40337); experiment: PROTAC activity at VHL/EZH2 in human KARPAS-422 cells assessed as degradation of EZH2 protein expression by Western blotting analysis; assay type: cell-based
Sequence of von Hippel-Lindau disease tumor suppressor/Histone-lysine N-methyltransferase EZH2 (Q15910 whole entry): as the sequence (Q15910 whole entry, looked up) above
Sequence of von Hippel-Lindau disease tumor suppressor/Histone-lysine N-methyltransferase EZH2 (P40337 whole entry): as the sequence (P40337 whole entry, looked up) above

K562 [23] = experiment: Induction of PRC1 degradation in human K562 cells assessed as reduction of H2AK119ub chromatin mark at 1 to 10 uM incubated for 24 hrs by Western blotting analysis; assay type: cell-based; details: dose 1-10 µM
Polycomb protein EED = Polycomb protein EED (Homo sapiens, UniProt O75530); experiment: Binding affinity to EED (75 to 441 residues) (unknown origin) expressed in Escherichia coli BL21 (DE3) assessed as dissociation constant by isothermal titration calorimetry
Sequence of Polycomb protein EED (O75530 whole entry, the tested form may be a part): as the sequence (O75530 whole entry) above

[24] = biological target: T1, von Hippel-Lindau disease tumor suppressor/Polycomb complex protein BMI-1 (Homo sapiens); experiment: PROTAC activity at […] in human 786-0 cells with defective VHL assessed as degradation of BMI1 protein expression at 10 uM incubated for 24 hrs by Western blotting analysis; assay type: cell-based
[25] = biological target: T2, Protein cereblon/E3 ubiquitin-protein ligase RING2; experiment: PROTAC activity at CRBN/RING1B in human 786-0 cells with defective VHL assessed as degradation of RING1B protein expression at 10 uM incubated for 24 hrs by Western blotting analysis; assay type: cell-based
786-0 [26] = experiment: Induction of PRC2 degradation in human 786-0 cells with defective VHL assessed as reduction of H3K27me3 chromatin mark at 10 uM incubated for 24 hrs by Western blotting analysis; assay type: cell-based
786-0 [27] = experiment: Induction of PRC1 degradation in human 786-0 cells with defective VHL assessed as reduction of H2AK119ub chromatin mark at 10 uM incubated for 24 hrs by Western blotting analysis; assay type: cell-based
786-0 [28] = experiment: Antiproliferative activity against human 786-0 cells assessed as inhibition of cell growth at 0.5 to 30 uM incubated for 7 days by WST-8 assay; assay type: functional, cell-based; details: dose 0.5-30 µM, time 7.0 day

SMILES | Activity [1] | Activity [2] | Activity (K562 [3]) | Activity (K562 [4]) | Activity (K562 [5]) | Activity (K562 [6]) | Activity (PC-3M [12]) | Activity (PC-3M [13]) | Activity (MDA-MB-468 [19]) | Activity (MDA-MB-468 [20]) | DC50 [21] [nM] | DC50 [22] [nM] | Activity [24] | Activity [25] | other results
Cc1nc(CCC(=O)NCCOc2ccc(OCC(=O)N[C@H](C(=O)N3C[C@H](O)C[C@H]3C(=O)NCc3ccc(-c4scnc4C)cc3)C(C)(C)C)cc2)ccc1-c1cnc(NCc2c(F)ccc3c2CCO3)n2cnnc12 | inactive | inactive | Active | inactive | inactive | inactive | Active | inactive | Active | inactive | < 120 | < 120 | – | – | Activity [7]: inactive; Activity [8]: inactive; Activity [9]: Active; Activity [10]: Active; Activity [11]: Active; Activity [14]: inactive; Activity [15]: inactive; Activity [16]: Active; Activity [17]: Active; Activity [18]: Active
Cc1nc(CCC(=O)NCCCC(=O)N[C@H](C(=O)N2C[C@H](O)C[C@H]2C(=O)NCc2ccc(-c3scnc3C)cc2)C(C)(C)C)ccc1-c1cnc(NCc2c(F)ccc3c2CCO3)n2cnnc12 | – | – | – | – | – | – | – | – | – | – | < 120 | < 1000 | – | – | –
Cc1ncsc1-c1ccc(CNC(=O)[C@@H]2C[C@@H](O)CN2C(=O)[C@@H](NC(=O)CCCNC(=O)c2ccc(-c3cnc(NCc4ccco4)n4cnnc34)cc2)C(C)(C)C)cc1 | inactive | inactive | Active | inactive | – | – | – | – | – | – | – | – | – | – | Activity (K562 [23]): inactive
Cc1ncsc1-c1ccc(CNC(=O)[C@@H]2C[C@@H](O)CN2C(=O)[C@@H](NC(=O)CCCCCCNC(=O)CCCCN2CCN(c3ccc(-c4cnc(NCc5ccco5)n5cnnc45)cc3)CC2)C(C)(C)C)cc1 | – | – | – | – | – | – | – | – | – | – | – | – | inactive | inactive | Kd (Polycomb protein EED): 3000 nM; Activity (786-0 [26]): Active; Activity (786-0 [27]): Active; Activity (786-0 [28]): inactive
CS(=O)(=O)c1ccc(-c2cnc(NCc3ccco3)n3cnnc23)cc1 | inactive | inactive | Active | inactive | inactive | inactive | Active | inactive | Active | inactive | – | – | inactive | inactive | –
